Assay results taken from the supplement of paper PMC10307832.

Experiments:
Assay in all cases: relative viability (nuclei count vs DMSO), 5 days (fraction); higher = more cells survive
Selisistat + Alpelisib = compound: C1CC(C2=C(C1)C3=C(N2)C=CC(=C3)Cl)C(=O)N [Selisistat] + Cc1nc(NC(=O)N2CCC[C@H]2C(N)=O)sc1-c1ccnc(C(C)(C)C(F)(F)F)c1 [Alpelisib] (partner 2 µM)
In short: (§1)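 Lung cancer cell lines were pin-tool dosed in 1536-well plates on the day after seeding, with either a lone drug or a fixed anchor-drug dose plus five library-drug doses (not always all listed) in √10 steps. Nuclei were counted on 4× images after 5 days. Relative viability is the ratio of treated-well to vehicle-well nuclei counts, with each value a median of duplicate plates.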

Selisistat + Dasatinib = compound: C1CC(C2=C(C1)C3=C(N2)C=CC(=C3)Cl)C(=O)N [Selisistat] + Cc1nc(Nc2ncc(C(=O)Nc3c(C)cccc3Cl)s2)cc(N2CCN(CCO)CC2)n1 [Dasatinib] (partner 0.075 µM)
In short: as §1

Serdemetan + Foretinib = compound: c1ccc2c(CCNc3ccc(Nc4ccncc4)cc3)c[nH]c2c1 [Serdemetan] + COc1cc2c(Oc3ccc(NC(=O)C4(C(=O)Nc5ccc(F)cc5)CC4)cc3F)ccnc2cc1OCCCN1CCOCC1 [Foretinib] (partner 0.25 µM)
In short: as §1

Serdemetan + Crizotinib = compound: c1ccc2c(CCNc3ccc(Nc4ccncc4)cc3)c[nH]c2c1 [Serdemetan] + C[C@@H](Oc1cc(-c2cnn(C3CCNCC3)c2)cnc1N)c1c(Cl)ccc(F)c1Cl [Crizotinib] (partner 1 µM)
In short: as §1

Cell Line | relative viability (Selisistat + Alpelisib; first compound 0.4 µM) | relative viability (Selisistat + Alpelisib; first compound 1.265 µM) | relative viability (Selisistat + Alpelisib; first compound 4 µM) | relative viability (Selisistat + Alpelisib; first compound 12.65 µM) | relative viability (Selisistat + Alpelisib; first compound 40 µM) | relative viability (Selisistat + Dasatinib; first compound 0.4 µM) | relative viability (Selisistat + Dasatinib; first compound 1.265 µM) | relative viability (Selisistat + Dasatinib; first compound 12.65 µM) | relative viability (Selisistat + Dasatinib; first compound 40 µM) | relative viability (Serdemetan + Foretinib; first compound 0.04 µM) | relative viability (Serdemetan + Foretinib; first compound 0.1265 µM) | relative viability (Serdemetan + Foretinib; first compound 0.4 µM) | relative viability (Serdemetan + Foretinib; first compound 1.265 µM) | relative viability (Serdemetan + Foretinib; first compound 4 µM) | relative viability (Serdemetan + Crizotinib; first compound 0.04 µM) | relative viability (Serdemetan + Crizotinib; first compound 0.1265 µM) | relative viability (Serdemetan + Crizotinib; first compound 0.4 µM) | relative viability (Serdemetan + Crizotinib; first compound 1.265 µM) | relative viability (Serdemetan + Crizotinib; first compound 4 µM) | relative viability (Selisistat + Dasatinib; first compound 4 µM)
NCI-H1437 | 1.03 | 0.987 | 0.787 | 0.981 | 0.919 | 0.399 | 0.349 | 0.331 | 0.514 | 1.31 | 1.19 | 1.27 | 1.08 | 0.963 | 0.835 | 1.03 | 0.786 | 0.778 | 0.8 | 
NCI-H1563 | 0.834 | 0.889 | 0.853 | 0.778 | 0.773 | 0.496 | 0.443 | 0.438 | 0.549 | 0.82 | 0.897 | 0.745 | 0.69 | 0.64 | 0.835 | 0.786 | 0.77 | 0.68 | 0.704 | 0.319
NCI-H1651 | 0.945 | 0.905 | 0.944 | 0.894 | 1.01 | 0.434 | 0.378 | 0.348 | 0.34 | 0.724 | 0.515 | 0.407 | 0.465 | 0.235 | 0.82 | 0.79 | 0.793 | 0.462 | 0.356 | 0.359
NCI-H1666 | 1.06 | 0.978 | 0.946 | 0.847 | 0.748 | 0.799 | 0.763 | 0.594 | 0.525 | 0.967 | 0.909 | 0.937 | 0.591 | 0.742 | 1.01 | 0.981 | 0.907 | 0.663 | 0.836 | 0.734
NCI-H1734 | 0.744 | 0.621 | 0.697 | 0.739 | 0.706 | 0.48 | 0.469 | 0.502 | 0.464 | 0.692 | 0.335 | 0.223 | 0.126 | 0.204 | 0.61 |  | 0.196 | 0.144 | 0.155 | 0.622
NCI-H1755 | 1.03 | 0.958 | 0.94 | 0.956 | 0.935 | 0.474 | 0.476 | 0.419 | 0.414 | 0.901 | 0.934 | 0.846 | 0.674 | 0.599 | 0.83 | 0.768 | 0.767 | 0.323 | 0.428 | 0.418
